From US20120083522A1, “MODULATION OF INFLAMMATORY RESPONSES BY FACTOR XI” (Isis Pharmaceuitcals, inc., priority 2009, published 2012) come the findings set out here.

In the oligonucleotide strings, read from the 5' end, every base follows the letter of its sugar. An asterisk marks phosphorothioate; unmarked linkages are phosphodiester. Other units and linkages are bracketed, terminal groups are in braces. A string of capitals states the bases alone. e = 2'-O-(2-methoxyethyl) (MOE); [5mC] = 5-methylcytosine; d = 2'-deoxy (DNA)

The test system of the first data set is Factor XI protein. Description: Cynomolgus monkeys: plasma Factor XI protein ELISA (Example 29). Type of data set: in vivo. Conditions: escalating doses 5, 10, 25 mg/kg s.c., day 8. The method, then: (§1) Groups, each consisting of two male and three female monkeys, were injected subcutaneously with ISIS 416838, ISIS 416850, ISIS 416858, ISIS 416864, or ISIS 417002 in escalating doses. Antisense oligonucleotide was administered to the monkeys at 5 mg/kg three times per a week for week 1; 5 mg/kg twice per week for weeks 2 and 3; 10 mg/kg three times per week for week 4; 10 mg/kg twice per week for weeks 5 and 6; 25 mg/kg three times per week for week 7; and 25 mg/kg twice per week for weeks 8, 9, 10, 11, and 12. One control group, consisting of two male and three female monkeys, was injected subcutaneously with PBS according to the same dosing regimen. An additional experimental group, consisting of two male and three female monkeys, was injected subcutaneously with ISIS 416850 in a chronic, lower dose regimen. Antisense oligonucleotide was administered to the monkeys at 5 mg/kg three times per week for week 1; 5 mg/kg twice per week for week 2 and 3; 10 mg/kg three times per week for week 4; and 10 mg/kg twice per week for weeks 5 to 12. Body weights were measured weekly. Blood samples were collected 14 days and 5 days before the start of treatment and subsequently once per week for Factor XI protein activity analysis in plasma and measurement of various hematologic factors. On day 85, the monkeys were euthanized by exsanguination while under deep anesthesia, and organs harvested for further analysis.
Plasma samples from all monkey groups taken on different days were analyzed by a sandwich-style ELISA assay (Affinity Biologicals Inc.) using an affinity-purified polyclonal anti-Factor XI antibody as the capture antibody and a peroxidase-conjugated polyclonal anti-Factor XI antibody as the detecting antibody. Monkey plasma was diluted 1:50 for the assay. Peroxidase activity was expressed by incubation with the substrate o-phenylenediamine. The color produced was quantified using a microplate reader at 490 nm and was considered to be proportional to the concentration of Factor XI in the samples.
The results are presented in Table 122, expressed as percentage reduction relative to that of the PBS control.
For the substance “ISIS 416838: gapmer of Table 6 (antisense eG*e[5mC]*eA*eA*e[5mC]*d[5mC]*dG*dG*dG*dA*dT*dG*dA*dT*dG*eA*eG*eT*eG*e[5mC])”, the “Inhibition of Factor XI protein relative to the PBS control” value came to 3%.

The same data set, now with this note: escalating doses 5, 10, 25 mg/kg s.c., day 15.
On to “ISIS 416838: gapmer of Table 6 (antisense eG*e[5mC]*eA*eA*e[5mC]*d[5mC]*dG*dG*dG*dA*dT*dG*dA*dT*dG*eA*eG*eT*eG*e[5mC])”, for which the “Inhibition of Factor XI protein relative to the PBS control” value is 4%.

The same data set, now with this note: escalating doses 5, 10, 25 mg/kg s.c., day 22.
As for “ISIS 416838: gapmer of Table 6 (antisense eG*e[5mC]*eA*eA*e[5mC]*d[5mC]*dG*dG*dG*dA*dT*dG*dA*dT*dG*eA*eG*eT*eG*e[5mC])”, the “Inhibition of Factor XI protein relative to the PBS control” value is reported as 5%.

Staying with this data set, now noted: escalating doses 5, 10, 25 mg/kg s.c., day 29.
With “ISIS 416838: gapmer of Table 6 (antisense eG*e[5mC]*eA*eA*e[5mC]*d[5mC]*dG*dG*dG*dA*dT*dG*dA*dT*dG*eA*eG*eT*eG*e[5mC])”, the “Inhibition of Factor XI protein relative to the PBS control” value came out at 8%.

Still in this data set, the particulars now being: escalating doses 5, 10, 25 mg/kg s.c., day 36.
With “ISIS 416838: gapmer of Table 6 (antisense eG*e[5mC]*eA*eA*e[5mC]*d[5mC]*dG*dG*dG*dA*dT*dG*dA*dT*dG*eA*eG*eT*eG*e[5mC])”, the “Inhibition of Factor XI protein relative to the PBS control” value came out at 11%.

The same data set, now with this note: escalating doses 5, 10, 25 mg/kg s.c., day 43.
Take “ISIS 416838: gapmer of Table 6 (antisense eG*e[5mC]*eA*eA*e[5mC]*d[5mC]*dG*dG*dG*dA*dT*dG*dA*dT*dG*eA*eG*eT*eG*e[5mC])”: the “Inhibition of Factor XI protein relative to the PBS control” value was found to be 5%.

Still in this data set, the particulars now being: escalating doses 5, 10, 25 mg/kg s.c., day 50.
Turning to “ISIS 416838: gapmer of Table 6 (antisense eG*e[5mC]*eA*eA*e[5mC]*d[5mC]*dG*dG*dG*dA*dT*dG*dA*dT*dG*eA*eG*eT*eG*e[5mC])”, the “Inhibition of Factor XI protein relative to the PBS control” value is 8%.

Staying with this data set, now noted: escalating doses 5, 10, 25 mg/kg s.c., day 57.
For the substance “ISIS 416838: gapmer of Table 6 (antisense eG*e[5mC]*eA*eA*e[5mC]*d[5mC]*dG*dG*dG*dA*dT*dG*dA*dT*dG*eA*eG*eT*eG*e[5mC])”, the “Inhibition of Factor XI protein relative to the PBS control” value is 10%.

The same data set, now with this note: escalating doses 5, 10, 25 mg/kg s.c., day 64.
Consider “ISIS 416838: gapmer of Table 6 (antisense eG*e[5mC]*eA*eA*e[5mC]*d[5mC]*dG*dG*dG*dA*dT*dG*dA*dT*dG*eA*eG*eT*eG*e[5mC])”, for which the “Inhibition of Factor XI protein relative to the PBS control” value is given as 11%.

Staying with this data set, now noted: escalating doses 5, 10, 25 mg/kg s.c., day 71.
For the substance “ISIS 416838: gapmer of Table 6 (antisense eG*e[5mC]*eA*eA*e[5mC]*d[5mC]*dG*dG*dG*dA*dT*dG*dA*dT*dG*eA*eG*eT*eG*e[5mC])”, the “Inhibition of Factor XI protein relative to the PBS control” value came out at 12%.

The same data set, now with this note: escalating doses 5, 10, 25 mg/kg s.c., day 78.
Take “ISIS 416838: gapmer of Table 6 (antisense eG*e[5mC]*eA*eA*e[5mC]*d[5mC]*dG*dG*dG*dA*dT*dG*dA*dT*dG*eA*eG*eT*eG*e[5mC])”: the “Inhibition of Factor XI protein relative to the PBS control” value came to 10%.

The data set is the same for the next values; noted with them: escalating doses 5, 10, 25 mg/kg s.c., day 85.
Take “ISIS 416838: gapmer of Table 6 (antisense eG*e[5mC]*eA*eA*e[5mC]*d[5mC]*dG*dG*dG*dA*dT*dG*dA*dT*dG*eA*eG*eT*eG*e[5mC])”: the “Inhibition of Factor XI protein relative to the PBS control” value stood at 10%.

The same data set, now with this note: escalating doses 5, 10, 25 mg/kg s.c., day −5 (before treatment).
Regarding “ISIS 416838: gapmer of Table 6 (antisense eG*e[5mC]*eA*eA*e[5mC]*d[5mC]*dG*dG*dG*dA*dT*dG*dA*dT*dG*eA*eG*eT*eG*e[5mC])”, the “Inhibition of Factor XI protein relative to the PBS control” value is listed as 0%.

Staying with this data set, now noted: escalating doses 5, 10, 25 mg/kg s.c., day −14 (before treatment).
In the case of “ISIS 416838: gapmer of Table 6 (antisense eG*e[5mC]*eA*eA*e[5mC]*d[5mC]*dG*dG*dG*dA*dT*dG*dA*dT*dG*eA*eG*eT*eG*e[5mC])”, the “Inhibition of Factor XI protein relative to the PBS control” value is recorded as 0%.

Test system in another data set: not listed separately
Description: Cynomolgus monkeys: body and organ weights (Example 29). The data set is classed as in vivo. Conditions: after euthanasia. The method, then:
as §1
Body weights were taken once weekly throughout the dosing regimen. […] Organ weights were taken after the animals were euthanized and livers, kidneys and spleens were harvested and weighed. […] The ISIS oligonucleotide, ISIS 416850, given with the chronic dose regimen is distinguished from the other oligonucleotides with an asterisk (*).
In turn, “ISIS 416838: gapmer of Table 6 (antisense eG*e[5mC]*eA*eA*e[5mC]*d[5mC]*dG*dG*dG*dA*dT*dG*dA*dT*dG*eA*eG*eT*eG*e[5mC])” showed a Kidney weight of 12 g, a Liver weight of 63 g and a Spleen weight of 5 g.

The same data set, now with this note: escalating doses 5, 10, 25 mg/kg s.c., day 1.
“ISIS 416838: gapmer of Table 6 (antisense eG*e[5mC]*eA*eA*e[5mC]*d[5mC]*dG*dG*dG*dA*dT*dG*dA*dT*dG*eA*eG*eT*eG*e[5mC])” showed a Body weight of 2720 g.

Staying with this data set, now noted: escalating doses 5, 10, 25 mg/kg s.c., day 8.
“ISIS 416838: gapmer of Table 6 (antisense eG*e[5mC]*eA*eA*e[5mC]*d[5mC]*dG*dG*dG*dA*dT*dG*dA*dT*dG*eA*eG*eT*eG*e[5mC])” yielded a Body weight of 2592 g.

Staying with this data set, now noted: escalating doses 5, 10, 25 mg/kg s.c., day 15.
On to “ISIS 416838: gapmer of Table 6 (antisense eG*e[5mC]*eA*eA*e[5mC]*d[5mC]*dG*dG*dG*dA*dT*dG*dA*dT*dG*eA*eG*eT*eG*e[5mC])”, for which the Body weight is listed as 2642 g.

The same data set, now with this note: escalating doses 5, 10, 25 mg/kg s.c., day 22.
On to “ISIS 416838: gapmer of Table 6 (antisense eG*e[5mC]*eA*eA*e[5mC]*d[5mC]*dG*dG*dG*dA*dT*dG*dA*dT*dG*eA*eG*eT*eG*e[5mC])”, for which the Body weight is 2702 g.
